Read-outs that look alike come from different tables or passages of the source. One block for each molecule: values may come before it.
Columns and labels:
P6-8 mouse OPCs [1] = assay: OPC proliferation index (EdU+/PDGFRa+) in cultures of murine OPCs; format: cell-based; conditions: 24-hour exposure; 0-1000 nM concentration range
Excerpt: (§1) Cells were fixed at day 100 following induction and the percent of DAPI+ cells expressing the OPC marker PDGFRa was quantified. […] Green=PDGFRa, white=DAPI. Scale bar=10 μm. […] Cells were fixed at day 100 following induction and the percent of DAPI+ cells expressing the mature oligodendrocyte marker MBP was quantified. […] Red=MBP, white=DAPI. Scale bar=10 μm. […] White-dashed circle=lesioned area in the corpus callosum. Scale bar=20 μm. […] FIG. 5K-FIG. 5M show representative confocal images of proliferating OPCs as shown by EdU incorporation into PDGFRa+ cells in mouse OPC cultures treated with vehicle control (FIG. 5K), 50 nM BDNF (FIG. 5L) and 100 nM LM22A-4 (FIG. 5M).
(§2) Thus, to therapeutically manipulate BDNF-TrkB signaling to promote oligodendrogenesis, we tested a small molecule TrkB partial agonist, LM22A-4. […] To determine if LM22A-4 could promote OPC proliferation and differentiation in a manner similar to BDNF, we compared the effects of recombinant BDNF, LM22A-4 or vehicle control in cultures of murine OPCs.

P6-8 mouse OPCs [2] = assay: Oligodendroglial differentiation (CC1+ cells) in murine OPC cultures; format: cell-based; conditions: seven-day exposure; BDNF 50 nM, LM22A-4 100 nM daily
Excerpt: as §1, §2

human iPSC-derived OPCs = assay: In vitro oligodendrogenesis in human iPSC-derived OPCs (PDGFRa+, MBP+ cells); format: cell-based; conditions: day 25-35 of OPC induction; 20 ng/ml BDNF or 1000 nM LM22A-4; fixed at day 100
Excerpt: as §1, §2

BDNF protein = conditions: mouse, in vivo
[3] = system: OPCs in the corpus callosum; conditions: MTX at P21, 28, 35; one month (P63) and 6 months (P203) after cessation; cited from earlier work
[4] = system: lysolecithin-induced demyelination in the corpus callosum; assay: Lysolecithin demyelination model, OPC proliferation and oligodendrogenesis in corpus callosum lesion; format: in vivo, mouse
Excerpt: as §1
To investigate the effects of LM22A-4 treatment on OPC proliferation and oligodendrogenesis in vivo, we next examined mice treated with either LM22A-4 or vehicle control in a well-established demyelination model. Stereotaxic injection of lysolecithin into white matter regions causes a focal, toxic, demyelinating injury; this leads to microglial activation and demyelination, followed by OPC proliferation, recruitment and migration into the lesion area. […]

[5] = format: in vivo, mouse; conditions: LM22A-4 50 mg/kg i.p. daily P38-P62, tested P63
Experimental: (§3) A single point indicates the g-ratio for a single axon. Approximately 100 axons were quantified and the mean g-ratio determined for each mouse. P-values (indicated on plots) were determined by a Student's t-test, comparing the mean g-ratio on a per mouse basis between groups. […] At P63, the Novel Object Recognition Test was performed in mice previously exposed to MTX chemotherapy or PBS vehicle control and later treated with LM22A-4 or vehicle control. Percent preference for novel object was measured as the percent time spent with novel object over the total time spent with either object (n=4 mice in each group). Statistical significance was determined by a one-sample t-test, where the average percent preference for the novel object for each group was measured against a hypothetical value of 50% chance an animal would interact with either object. […] Scale bars=2 μm. FIG. 6F-FIG. 6G show myelin microstructure data shown in FIG. 6C are shown as scatterplots of g-ratio as a function of axon caliber. […] LM22A-4 increases myelin sheath thickness in control mice. […] LM22A-4 rescues myelin deficits in mice exposed to juvenile MTX in small caliber axons (<0.5 μm; n=7 mice, p=0.005), medium caliber axons (0.5 μm-1.0 μm; n=7, p=0.006) and large caliber axons (>1.0 μm; n=7 mice; p=0.033) compared to mice exposed to MTX but treated with vehicle control. Data in FIG. 6A-FIG. 6E shown as mean±SEM, ns=p>0.05, * p<0.05, ** p<0.01 *** p<0.001 as determined by Student's t-test.
(§4) The chemotherapy-induced neurological syndrome is characterized by decreased attention and memory function and this is recapitulated in the MTX mouse model used here. To test the hypothesis that BDNF to TrkB signaling could promote myelination and improve cognitive dysfunction after chemotherapy exposure, mice were subjected to the above MTX chemotherapy protocol, then treated systemically with the TrkB partial agonist LM22A-4 (50 mg/kg i.p. daily, P38-P62, FIG. 6A) or vehicle control, and analyzed at 24 hours after the final injection (P63) for changes in myelin microstructure and behavioral performance in the novel object recognition test.
(§5) Myelin microstructure in the cingulum of the corpus callosum was examined by transmission electron microscopy. […] The myelin microstructural effects of LM22A-4 thus mimic activity-regulated changes in myelin microstructure, but would lack the circuit-specificity of the activity-regulated response. To test the influence of LM22A-4 on a behavioral measure of attention and memory function, the novel object recognition test was used. After brief introduction to two identical objects, mice are then exposed to one familiar object as well as a completely novel object after a time delay of 5-minutes. […] Treatment with LM22A-4 from P38-P62 rescues performance in the novel object recognition test in MTX treated mice as these mice spend a significant percentage of their time interacting with the novel object over the familiar object (MTX+vehicle: 47.94%±3.50%, p=0.5968 over 50%; PBS+vehicle: 63.37%±4.72%, p=0.0219 over 50%; MTX+LM22A-4: 62.81%±3.31%, p=0.0305 over 50%; PBS+LM22A-4: 68.93%±6.34%, p=0.0317 over 50%; FIG. 6E).

[6] = system: myelinated axons in the cingulum of the corpus callosum; format: in vivo, mouse; conditions: for g-ratio: LM22A-4 50 mg/kg i.p. daily P38-P62, analysed P63
Experimental: as §3, §4, §5

TrkB receptor = TrkB receptor (Homo sapiens, UniProt Q16620); conditions: previously shown; cited from earlier work
Sequence of TrkB receptor (Q16620 32-822): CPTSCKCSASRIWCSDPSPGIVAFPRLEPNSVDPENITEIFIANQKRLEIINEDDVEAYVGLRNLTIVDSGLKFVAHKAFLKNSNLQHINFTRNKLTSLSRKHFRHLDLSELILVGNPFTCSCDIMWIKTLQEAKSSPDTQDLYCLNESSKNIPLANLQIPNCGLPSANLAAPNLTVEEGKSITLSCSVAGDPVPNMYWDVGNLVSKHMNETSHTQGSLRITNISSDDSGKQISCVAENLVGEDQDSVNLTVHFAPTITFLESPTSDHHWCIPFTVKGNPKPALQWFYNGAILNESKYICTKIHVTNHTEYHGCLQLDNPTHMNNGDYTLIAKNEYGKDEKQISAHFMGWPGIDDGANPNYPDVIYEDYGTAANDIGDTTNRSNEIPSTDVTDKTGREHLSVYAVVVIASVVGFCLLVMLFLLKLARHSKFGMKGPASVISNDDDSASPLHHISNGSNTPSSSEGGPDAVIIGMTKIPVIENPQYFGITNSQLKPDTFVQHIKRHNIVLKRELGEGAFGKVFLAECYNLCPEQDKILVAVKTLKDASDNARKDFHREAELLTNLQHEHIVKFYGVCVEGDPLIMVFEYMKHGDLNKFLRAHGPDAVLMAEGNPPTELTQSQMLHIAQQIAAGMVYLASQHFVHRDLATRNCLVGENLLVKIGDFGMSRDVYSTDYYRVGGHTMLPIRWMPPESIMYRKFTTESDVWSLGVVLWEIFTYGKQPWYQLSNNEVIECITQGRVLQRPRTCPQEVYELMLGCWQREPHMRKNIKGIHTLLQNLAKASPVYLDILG

[7] = BDNF protein; cited from earlier work

Molecule: BDNF: brain-derived neurotrophic factor, recombinant protein, ligand of TrkB
proliferative index of OPCs (fraction of total cells in S phase, co-localization of PDGFRa with EdU) (P6-8 mouse OPCs [1]): increased the proliferative index
oligodendroglial differentiation, cells expressing CC1 relative to vehicle control (P6-8 mouse OPCs [2]): similarly promoted oligodendroglial differentiation
in vitro oligodendrogenesis in human oligodendroglial lineage cells (human iPSC-derived OPCs): similarly promote in vitro oligodendrogenesis

corpus callosum BDNF protein levels (BDNF protein): 5350 ± 1740 pg/mL
decrease in corpus callosum BDNF protein levels compared to PBS vehicle controls (BDNF protein): more than three-fold decrease
Molecule: CN(Cc1cnc2nc(N)nc(N)c2n1)c1ccc(C(=O)N[C@@H](CCC(=O)O)C(=O)O)cc1 [MTX, methotrexate]
OPCs in the corpus callosum after MTX exposure [3]: lasting reduction of OPCs in the corpus callosum

Molecule: O=C(NCCO)c1cc(C(=O)NCCO)cc(C(=O)NCCO)c1 [LM22A-4, N,N′,N″-tris(2-hydroxyethyl)-1,3,5-benzenetricarboxamide]
proliferative index of OPCs (fraction of total cells in S phase, co-localization of PDGFRa with EdU) (P6-8 mouse OPCs [1]): similarly increased the proliferative index of OPCs in the low nanomolar range and in a dose-dependent manner
oligodendroglial differentiation, cells expressing CC1 relative to vehicle control (P6-8 mouse OPCs [2]): similarly promoted oligodendroglial differentiation
in vitro oligodendrogenesis in human oligodendroglial lineage cells (human iPSC-derived OPCs): similarly promote in vitro oligodendrogenesis
density of EdU+/PDGFRa+ proliferating OPCs in lesioned area ([4]; 50 mg/kg i.p. for one week from day 7 after lysolecithin injection): 1132±67.1 cells/mm3
density of EdU+/CC1+ newly generated mature oligodendrocytes in lesioned area ([4]; 50 mg/kg, day 7 to 21 following lysolecithin injury): 764.8±141.6 cells/mm3
percent preference for novel object ([5]; MTX-exposed mice): 62.81%±3.31%
percent preference for novel object ([5]; PBS-exposed mice): 68.93%±6.34%
g-ratio ([6]; MTX-exposed mice (100 mg/kg i.p. P21, 28, 35)): 0.733±0.017
myelin thickness by axon caliber ([6]; MTX-treated mice, small (<0.5 μm), medium (0.5-1.0 μm), large (>1.0 μm) caliber axons): increased myelin thickness in small, medium and large caliber axons
g-ratio ([6]; PBS-exposed mice): 0.713±0.010
TrkB receptor activation (TrkB receptor): activate the TrkB receptor specifically

B1: BDNF: brain-derived neurotrophic factor, recombinant protein, ligand of TrkB (protein, UniProt P23560 19-247, looked up)
Neurotrophic factor BDNF …: APMKEANIRGQGGLAYPGVRTHGTLESVNGPKAGSRGLTSLADTFEHVIEELLDEDQKVRPNEENNKDADLYTSRVMLSSQVPLEPPLLFLLEEYKNYLDAANMSMRVRRHSDPARRGELSVCDSISEWVTAADKKTAVDMSGGTVTVLEKVPVSKGQLKQYFYETKCNPMGYTKEGCRGIDKRHWNSQCRTTQSYVRALTMDSKKRIGWRFIRIDTSCVCTLTIKRGR
blood-brain-barrier penetration [7]: poor blood-brain-barrier penetration
plasma half-life [7]: short plasma half-life
